Assay results from US20140096445A1, “METHOD OF CULTIVATION IN WATER DEFICIT CONDITIONS” (SYNGENTA PARTICIPATIONS AG, priority 2011, published 2014).

Experiments:
Assay type in all cases: in vivo
corn [1] = test: Sprinkler irrigation management field test, full vs deficit irrigation, Examples 9-10; conditions: 261 gai/ha, 60% irrigated deficit
Protocol: A completely random test design (split plot) was conducted using Sprinkler Irrigation. This was an irrigation management test to study treatment effects on yield under full irrigation and deficit irrigation conditions. The field study was set up with four replications and tested on silt loam soil. Overhead sprinkler irrigation and overhead sprinkler chemigation was used in this study. Each plot was 4 rows wide (3 meters) by 9.1 meters long. Soil water status was monitored throughout the growing season using soil moisture sensors. Corn seed was planted with a precision planter at a depth of 2 inches and rows spaced at 30 inches. The planting population was 30,000 seeds per acre. Testing parameters, irrigation levels, and harvesting were conducted according to the University of Nebraska experimental procedure (see, e.g.,: Irmak, S, D. Z. Haman, and R. Bastug. Determination of Crop Water Stress Index for irrigation Timing and Yield Estimation of Corn. 2000. Agronomy Journal. 92:1221-1227). Moisture levels, irrigation levels, and plant health were measured throughout the growing season. Climatic variables were measured (air temperature, rainfall, solar and net radiation, relative humidity, rainfall, wind speed and direction) throughout the season. Irrigation for the fully irrigated treatments was scheduled according crop need based on soil water measurements. The deficit irrigation treatments were scheduled at approximately 60% of the fully irrigated plots (1.2 inches/acre vs. 2 inches of water/acre, respectively). Volumetric soil water content was measured on a weekly basis throughout the crop season to determine total water use. Maintenance crop protection products were applied as needed to manage weeds & pests throughout the season for all treatments including the control. Azoxystrobin (Quadris) was applied via overhead sprinkler irrigation at 261 grams active ingredient/hectare or by foliar application (tractor mounted sprayer) at 261 grams active ingredient/hectare at approximately V6 & R1 stages of the corn. Crop yield from each replication was recorded after harvest and adjusted to 15% moisture content.

corn [2] = test: Subsurface drip irrigation (SDI) chemigation field study, limited (deficit) vs fully irrigated, Examples 1-2; conditions: 261 gai/ha, 50% irrigated deficit
soybean [3] = test: Sprinkler irrigation field study on soybean yield and WUE, Table 14 (treatments 31-32)
soybean [4] = test: Lateral-move sprinkler irrigation field study on soybean, Examples 29-30; conditions: for % IWUE Increase over Untreated / % Seed Mass Increase over Untreated / % Yield Increase over Untreated / IWUE (water productivity) / Seed Mass / Yield: foliar 150 gai/ha, average of 60% & 100% irrigated
[5] = Azoxy 150 gai/ha foliar, 2 applications, alone or + Acibenzolar-S-methyl 10 gai/ha, 60% irrigated deficit

For CO/C=C(/C(=O)OC)c1ccccc1Oc1cc(Oc2ccccc2C#N)ncn1 [Azoxystrobin, azoxystrobin], which Yield (corn [1]; foliar-applied (V6 & R1)) is on record?
The Yield was 196 Bu./acre.

What about the “Azoxystrobin % Yield Increase over 60% Untr.” value (corn [1]; foliar-applied) of the same compound?
The value was “+3% Incr”.

What about the “Azoxystrobin % Yield Increase over 100% Untr.” value (corn [1]; foliar-applied) of the same compound?
The value was “+4% Incr”.

What about the Yield (corn [1]; sprinkler chemigated (V6 & R1)) of the same compound?
Its Yield is 197 Bu./acre.

And the “Azoxystrobin % Yield Increase over 60% Untr.” value (corn [1]; sprinkler chemigated)?
Its value is “+4% Incr”.

And the “Azoxystrobin % Yield Increase over 100% Untr.” value (corn [1]; sprinkler chemigated)?
The value was “+5% Incr”.

What about the Yield (corn [2]; SDI chemigated twice (V8 & V8+14da.)) of the same compound?
Its Yield is 217 Bu./acre.

And the “Azoxystrobin % IWUE Increase over Untr./50% Irr.” value (corn [2]; SDI chemigated)?
The value was “+40% incr”.

And the “Azoxystrobin % IWUE Increase over Untr./100% irr.” value (corn [2]; SDI chemigated)?
Its value is “+114% incr”.

And the “Azoxystrobin % Yield Increase over Untr./50% Irr.” value (corn [2]; SDI chemigated)?
Its value is “+11% incr”.

What about the “Azoxystrobin % Yield Increase over Untr./100% irr.” value (corn [2]; SDI chemigated) of the same compound?
The value was “+2.4% incr”.

What about the “IWUE (irrigation water use efficiency)” value (corn [2]; SDI chemigated) of the same compound?
Its value is 22.9 Bu./inch.

And the “Azoxystrobin % IWUE Increase over Untr./100% irr.” value (corn [2]; SDI chemigated, listed as Quadris)?
Its value is 114%.

What about the Yield (corn [2]; foliar applied twice (V8 & V8+14da.)) of the same compound?
Its Yield is 211 Bu./acre.

What about the “Azoxystrobin % IWUE Increase over Untr./50% Irr.” value (corn [2]; foliar applied) of the same compound?
Its value is “+29% incr”.

And the “Azoxystrobin % IWUE Increase over Untr./100% irr.” value (corn [2]; foliar applied)?
Its value is “+97% incr”.

What about the “Azoxystrobin % Yield Increase over Untr./50% Irr.” value (corn [2]; foliar applied) of the same compound?
Its value is “+11% incr”.

What about the “Azoxystrobin % Yield Increase over Untr./100% irr.” value (corn [2]; foliar applied) of the same compound?
The value was “+0% incr. over”.

And the “IWUE (irrigation water use efficiency)” value (corn [2]; foliar applied)?
Its value is 21.1 Bu./inch.

And the “% WUE Increase over the 100% irrigated Control” value (soybean [3]; [5])?
The value was 11% Increase.

And the “Treatment % Yield Increase over 60% Untreated” value (soybean [3]; [5])?
The value was “+6% Incr”.

What about the “Treatment % Yield Increase over 100% Untreated” value (soybean [3]; [5]) of the same compound?
The value was “+11% Incr”.

And the “WUE (water productivity)” value (soybean [3]; [5])?
Its value is 4.1 bushels/acre-inch.

What about the Yield (soybean [3]; [5]) of the same compound?
Its Yield is 72 Bu./acre.

What about the “Yield compared with the untreated, in words” value (soybean [3]; Azoxystrobin: foliar (2 applications) at 60% & 100% irrigated) of the same compound?
Its value is “significant differences in yield”.

What about the “WUE differences, in words” value (soybean [3]; water deficit regime) of the same compound?
The value was “Good WUE differences”.

What about the “Seed mass, statistical statement” value (soybean [4]; all Quadris treatments) of the same compound?
The value was “Statistically significant difference in seed mass”.

What about the “% IWUE Increase over Untreated” value (soybean [4]; one application) of the same compound?
Its value is “+2% over”.

And the “% Seed Mass Increase over Untreated” value (soybean [4]; one application)?
Its value is “+3% over”.

What about the “% Yield Increase over Untreated” value (soybean [4]; one application) of the same compound?
The value was “+2% over”.

What about the “IWUE (water productivity)” value (soybean [4]; one application) of the same compound?
Its value is 129 lbs/acre-inch.

What about the “Seed Mass” value (soybean [4]; one application) of the same compound?
Its value is 148a mg.

And the Yield (soybean [4]; one application)?
The Yield was 48.4 Bu./acre.

And the “Water productivity, in words” value (soybean [4]; soybean, sprinkler irrigation)?
Its value is “increase in water productivity”.

And the “% IWUE Increase over Untreated” value (soybean [4]; two applications)?
The value was “+6% over”.

And the “% Seed Mass Increase over Untreated” value (soybean [4]; two applications)?
The value was “+6% over”.

What about the “% Yield Increase over Untreated” value (soybean [4]; two applications) of the same compound?
Its value is “+5% over”.

What about the “IWUE (water productivity)” value (soybean [4]; two applications) of the same compound?
The value was 133 lbs/acre-inch.

And the “Seed Mass” value (soybean [4]; two applications)?
The value was 151a mg.

What about the Yield (soybean [4]; two applications) of the same compound?
Its Yield is 49.7 Bu./acre.
